≈ marks a conversion by molar mass, not a printed value.
How the values were obtained:
Test in all cases: ≥ marks a high value that may be exact or a test limit, other limits are often not marked, values filed in µg/mL are converted to µM
[1] = test system: Staphylococcus aureus
[2] = test system: Candida albicans
[3] = test system: Escherichia coli
[4] = test system: Pseudomonas aeruginosa ATCC 9027
[5] = test system: Klebsiella pneumoniae ATCC 700603
[6] = test system: Staphylococcus aureus ATCC 25923
[7] = test system: Acinetobacter baumannii
[8] = test system: Escherichia coli ATCC 25922
[9] = test system: Pseudomonas aeruginosa ATCC 27853
[10] = test system: Pseudomonas aeruginosa
[11] = test system: Acinetobacter baumannii ATCC 19606

Compound	MIC [1] [µM]	MIC [2] [µM]	MIC [3] [µM]	MIC [6] [µM]	MIC [7] [µM]	MIC [8] [µM]	MIC [10] [µM]	further results
CC[C@H](C)[C@H](NC(=O)[C@H](CC(C)C)NC(=O)[C@H](Cc1cnc[nH]1)NC(=O)[C@@H](NC(=O)[C@@H](NC(=O)[C@@H](NC(=O)CNC(=O)[C@H](CC(C)C)NC(=O)[C@H](C)NC(=O)[C@H](C)NC(=O)[C@H](CCCCN)NC(=O)CNC(=O)[C@@H](NC(=O)[C@H](Cc1cnc[nH]1)NC(=O)[C@H](CCCCN)NC(=O)[C@@H](NC(=O)[C@@H](NC(=O)[C@H](CC(=O)O)NC(=O)[C@H](CC(C)C)NC(=O)[C@H](Cc1ccccc1)NC(=O)CN)C(C)C)[C@@H](C)CC)C(C)C)C(C)C)C(C)C)[C@@H](C)O)C(=O)N[C@@H](CC(N)=O)C(=O)N[C@@H](CCC(N)=O)C(N)=O [GFLDVIKHVGKAALGVVTHLINQ]	6.58 (≈ 16 µg/mL)	13.2 (≈ 32 µg/mL)	26.3 (≈ 64 µg/mL)	–	–	–	–	–
CC[C@H](C)[C@H](NC(=O)[C@H](Cc1c[nH]c2ccccc12)NC(=O)[C@H](CCCCN)NC(=O)[C@@H](NC(=O)[C@H](CC(C)C)NC(=O)[C@H](CO)NC(=O)[C@H](CCCCN)NC(=O)CN)C(C)C)C(=O)N[C@H](C(=O)N[C@@H](CCCCN)C(=O)N[C@@H](CO)C(=O)N[C@H](C(=O)N[C@@H](CCCN=C(N)N)C(=O)N[C@@H](CCCCN)C(=O)N[C@@H](C)C(N)=O)C(C)C)C(C)C [GKSLVKWIVKSVRKA]	–	–	–	> 25	25 (≈ 42.5 µg/mL)	> 25	–	MIC [4]: > 25 µM; MIC [5]: > 25 µM
CC(C)C[C@H](NC(=O)CNC(=O)[C@@H]1CCCN1C(=O)[C@H](CCCCN)NC(=O)[C@H](CCCCN)NC(=O)[C@@H]1CCCN1C(=O)[C@H](CCCN=C(N)N)NC(=O)[C@H](CC(=O)O)NC(=O)[C@@H](N)CCCCN)C(=O)N[C@@H](CS)C(=O)N1CCC[C@H]1C(=O)N[C@@H](C)C(=O)N[C@@H](C)C(=O)N[C@@H](CCCCN)C(=O)N[C@@H](CCCCN)C(=O)N[C@@H](C)C(=O)N[C@@H](C)C(=O)N[C@@H](C)C(=O)N[C@@H](C)C(=O)N[C@@H](CCCCN)C(=O)N[C@@H](C)C(N)=O [KDRPKKPGLCPAAKKAAAAKA]	118 (≈ 250 µg/mL)	236 (≈ 500 µg/mL)	> 236	118 (≈ 250 µg/mL)	–	14.7 (≈ 31.2 µg/mL)	58.9 (≈ 125 µg/mL)	MIC [9]: 29.5 µM (≈ 62.5 µg/mL)
CC[C@H](C)[C@H](NC(=O)[C@H](CCCN=C(N)N)NC(=O)[C@@H](NC(=O)[C@@H](NC(=O)[C@@H]1CCCN1C(=O)[C@@H](NC(=O)[C@@H](NC(=O)[C@@H](NC(=O)[C@@H]1CCCN1C(=O)CNC(=O)CNC(=O)[C@H](CCCCN)NC(=O)[C@H](CCCCN)NC(=O)[C@H](Cc1c[nH]c2ccccc12)NC(=O)[C@H](C)NC(=O)[C@H](CCCN=C(N)N)NC(=O)[C@H](CC(C)C)NC(=O)[C@@H](NC(=O)[C@H](CCCCN)NC(=O)[C@H](CCCN=C(N)N)NC(=O)CNC(=O)[C@H](CC(C)C)NC(=O)[C@H](CCCCN)NC(=O)[C@H](CCCN=C(N)N)NC(=O)[C@H](CC(C)C)NC(=O)CNC(=O)[C@@H](N)CCCCN)[C@@H](C)CC)[C@@H](C)CC)[C@@H](C)CC)C(C)C)[C@@H](C)CC)[C@@H](C)CC)C(=O)O [KGLRKLGRKILRAWKKGGPIIVPIIRI]	–	–	–	–	3.25 (≈ 10 µg/mL)	–	–	MIC [11]: 2.3 µM (≈ 7.07 µg/mL)
CC(C)C[C@H](NC(=O)CNC(=O)[C@H](C)NC(=O)[C@H](CC(C)C)NC(=O)[C@H](CCCCN)NC(=O)[C@H](CCCCN)NC(=O)[C@H](C)NC(=O)[C@H](CC(C)C)NC(=O)CNC(=O)[C@H](C)NC(=O)[C@H](Cc1c[nH]c2ccccc12)NC(=O)[C@H](CCCCN)NC(=O)[C@H](CCCCN)NC(=O)[C@H](C)NC(=O)[C@H](CC(C)C)NC(=O)CNC(=O)[C@H](C)NC(=O)[C@H](CC(C)C)NC(=O)[C@@H](N)CCCCN)C(=O)N[C@@H](C)C(=O)N[C@@H](CCCCN)C(N)=O [KLAGLAKKWAGLAKKLAGLAK]	7.49 (≈ 16 µg/mL)	–	3.74 (≈ 8 µg/mL)	–	–	–	7.49 (≈ 16 µg/mL)	–
CC(C)C[C@H](NC(=O)CNC(=O)[C@H](C)NC(=O)[C@H](CC(C)C)NC(=O)[C@H](CCCCN)NC(=O)[C@H](C)NC(=O)[C@H](CCCCN)NC(=O)[C@H](CC(C)C)NC(=O)CNC(=O)[C@H](C)NC(=O)[C@H](Cc1c[nH]c2ccccc12)NC(=O)[C@H](CCCCN)NC(=O)[C@H](C)NC(=O)[C@H](CCCCN)NC(=O)[C@H](CC(C)C)NC(=O)CNC(=O)[C@H](C)NC(=O)[C@H](CC(C)C)NC(=O)[C@@H](N)CCCCN)C(=O)N[C@@H](CCCCN)C(=O)N[C@@H](C)C(N)=O [KLAGLKAKWAGLKAKLAGLKA]	> 120	–	> 120	–	–	–	> 120	–
CC[C@H](C)[C@H](NC(=O)[C@H](Cc1ccccc1)NC(=O)[C@H](CO)NC(=O)[C@H](CCCCN)NC(=O)[C@H](Cc1c[nH]c2ccccc12)NC(=O)[C@@H](N)CCCCN)C(=O)N[C@@H](CCCCN)C(=O)N[C@@H](CCCCN)C(=O)N[C@@H](CC(C)C)C(=O)N[C@H](C(=O)N[C@@H](CO)C(=O)N[C@@H](CCCCN)C(=O)N[C@@H](CCCCN)C(=O)N[C@@H](CC(C)C)C(=O)N[C@@H](Cc1cnc[nH]1)C(=O)N[C@@H](CO)C(=O)N[C@@H](C)C(=O)N[C@@H](CCCCN)C(=O)N[C@@H](CCCCN)C(=O)N[C@@H](Cc1ccccc1)C(N)=O)[C@@H](C)O [KWKSFIKKLTSKKLHSAKKF]	–	–	–	–	–	–	> 20.5	–
CC[C@H](C)[C@H](NC(=O)[C@H](CC(C)C)NC(=O)[C@H](CCC(N)=O)NC(=O)[C@@H](NC(=O)[C@H](CC(C)C)NC(=O)[C@H](CCCN=C(N)N)NC(=O)[C@H](CCCN=C(N)N)NC(=O)[C@@H](NC(=O)[C@H](C)NC(=O)[C@H](CCCCN)NC(=O)[C@H](CCCN=C(N)N)NC(=O)[C@@H](N)CC(C)C)[C@@H](C)O)C(C)C)C(=O)N[C@H](C(=O)N[C@@H](CO)C(=O)NCC(=O)O)C(C)C [LRKATRRLVQLIVSG]	–	–	–	> 25	25 (≈ 42.8 µg/mL)	> 25	–	MIC [4]: > 25 µM; MIC [5]: > 25 µM
CSCC[C@H](NC(=O)[C@@H](NC(=O)[C@H](CCCN=C(N)N)NC(=O)[C@H](Cc1ccccc1)NC(=O)[C@H](C)NC(=O)[C@H](C)NC(=O)[C@H](CCCCN)NC(=O)[C@H](CCCN=C(N)N)NC(=O)[C@H](Cc1c[nH]c2ccccc12)NC(=O)[C@H](C)NC(=O)[C@@H]1CCCN1C(=O)[C@@H](N)CCCN=C(N)N)C(C)C)C(=O)N[C@@H](CCCN=C(N)N)C(=O)N[C@@H](C)C(=O)N[C@@H](CS)C(=O)N[C@H](C(N)=O)C(C)C [RPAWRKAAFRVMRACV]	–	–	–	–	–	–	2.09 (≈ 4 µg/mL)	–
CC[C@H](C)[C@H](NC(=O)[C@H](CCCCN)NC(=O)[C@H](CS)NC(=O)[C@H](C)NC(=O)[C@@H](NC(=O)[C@H](Cc1ccccc1)NC(=O)CNC(=O)[C@H](CC(C)C)NC(=O)CNC(=O)[C@@H](NC(=O)[C@H](CCCCN)NC(=O)[C@H](CCCCN)NC(=O)[C@H](CC(C)C)NC(=O)[C@H](CC(N)=O)NC(=O)[C@H](CCCCN)NC(=O)[C@H](CC(C)C)NC(=O)[C@@H](NC(=O)[C@H](CO)NC(=O)[C@H](CC(C)C)NC(=O)[C@H](CCSC)NC(=O)[C@@H](N)CO)C(C)C)C(C)C)C(C)C)C(=O)N[C@@H](CC(N)=O)C(=O)N[C@@H](CCCCN)C(=O)N[C@@H](CCC(N)=O)C(=O)N[C@@H](CS)C(=O)O [SMLSVLKNLKKVGLGFVACKINKQC]	> 200	> 200	200 (≈ 544 µg/mL)	–	–	–	–	–

From DBAASP
